Source: patent publication US20220023273A1, “METHODS FOR TREATING SYMPTOMS AND DISORDERS ASSOCIATED WITH LYSOSOMAL STORAGE DISEASES” (GENZYME CORPORATION, priority 2019, published 2022)
Where two headings read alike, the source gives them in different places.

How the values were obtained:
Type in all cases: in vivo, human
[1] = system: adult male Fabry patients; assay: Fabry clinical study: SF-36 bodily pain and abdominal pain assessment; details: Fabry males; for patients with decreased severity of abdominal pain / patients with improved overall bodily pain scores (SF-36) / patients with reduced number of days with gastrointestinal pain: 15 mg/day oral
Text: (§1) Each sample was scored independently by 3 pathologists for the presence of GL-3 inclusions on a four-point scale, and rated as 0 (no/trace), 1 (mild), 2 (moderate), or 3 (severe) according to Eng et al., N. Engl. J. Med. 345:9-16 (2001). A single score per patient per time point was derived by taking the score rated by the majority of the three pathologists. If a majority score could not be derived, then the median score was used (resulting in some fractional scores). Plasma samples were also analyzed for GL-3, lyso-GL-3, GL-1 and GM3 at baseline and weeks 12, 26, 52 and 156. Pain scores and abdominal symptoms were analyzed at baseline and weeks 12, 26, 52, 104 and 156 using the SF-36 scoring protocol.
Patients were assessed using the Short Form-36 (SF-36) questionnaire on numerous visits from baseline to week 156. This is a 36-item questionnaire used to measure 8 various aspects of health (vitality, physical functioning, bodily pain, general health perceptions, physical role functioning, emotional role functioning, social role functioning and mental health). The score for each of the eight aspects ranges from 0 (maximum disability) to 100 (no disability), and thus, higher scores indicate good health condition. In addition, gastrointestinal symptoms, including abdominal pain, abdominal distention, and bowl movements, were assessed using a modified version of the inflammatory bowel severity scoring system. Particular questions asked as part of these assessments included: (1) whether the patient suffered abdominal pain within the last ten days, (2) what was the severity of abdominal pain suffered in the last ten days using a 0 (no pain) to 100 (very severe pain) scale, and (3) on how many days within the last ten days did the patient have abdominal pain.

[2] = system: GL-3 inclusions in skin cells; assay: Fabry clinical study: skin GL-3 inclusion score by light microscopy; details: Fabry males
Description: A three-year open-label investigation of Compound 2 in young classic Fabry disease patients was conducted in order to evaluate the long-term safety, pharmacodynamics and exploratory efficacy of Compound 2 in adult male Fabry patients. Eleven subjects enrolled in the study, and seven subjects completed all aspects of the study. All subjects were males diagnosed with classic Fabry disease confirmed by genotype and residual alpha-galactosidase activity below detection levels (9 of the 11 had nonsense mutation in the GLA gene). All subjects had lyso-GL3 levels in plasma of at least 65 ng/mL and had no prior Fabry disease-specific treatment. The median age of subject was 24 years (range 19-37).
as §1

[3] = Phase 1 Study 1 Part 2: PK with and without a high-fat meal; details: healthy men, single oral 5 mg, fed vs fasting
Text: Study 1 was a 2-part single-center trial in healthy adult male volunteers.
After a 7-day washout period, participants were crossed over to the other condition.

[4] = system: adult patients with Gaucher disease Type 3; assay: GD3 clinical study: markers for systemic disease (spleen volume, platelet count, hemoglobin); details: GD3, 15 mg/day oral + imiglucerase
Description: (§2) During the study patients were evaluated for safety and tolerability, CSF and plasma biomarkers (glucosylceramide, GL-1; glucosylsphingosine, lyso-GL1), pharmacokinetics, markers for systemic disease (spleen and liver volume measured by magnetic resonance imaging (MRI), platelet count, hemoglobin levels), indicia of interstitial lung disease (high resolution pulmonary computed tomography (CT)), and horizontal saccadic eye movement.
Individual patient data for platelet counts are shown in the table below (shown as 10^9 platelets/L): […]

[5] = GD3 clinical study: pharmacokinetics in plasma and CSF; details: for AUC: human, plasma, po, Day 1 (N = 5), read-out: AUC0_24 (mean ± SD)
Text: Patients 18 years of age or older with a clinical diagnosis of GD3 and documented deficiency of acid beta-glucosidase activity having received treatment with ERT for at least 3 years and with imiglucerase (Cerezyme) at a stable monthly dose for at least 6 months prior to enrollment were included in the study. Patients must have reached the following GD therapeutic goals: hemoglobin level of ≥11.0 g/dL for females and ≥12.0 g/dL for males; platelet count ≥100 000/mm3; spleen volume <10 multiples of normal (MN), or total splenectomy (provided the splenectomy occurred >3 years prior to randomization); liver volume <1.5 MN; and no bone crisis and free of symptomatic bone disease such as bone pain attributable to osteonecrosis and/or pathological fractures within the last year. Patients must have GD3 featuring oculomotor apraxia (supranuclear gaze palsy) characterized by a horizontal saccade abnormality.
as §2
A second interim analysis was performed when the first 6 patients had reached 52-weeks of treatment, as described above in section (A). This analysis included Patients 1-5 as described in section (A), as well as new Patient 6. All six patients had L444P (1448T/C) homozygous Gaucher phenotype.

[6] = system: plasma GL-1, GL-3, and GM3; assay: Phase 1 Study 2: pharmacodynamics
Description: The study enrolled and randomized 36 healthy adults (19 men and 17 women) (n=9 each to group).
Pharmacodynamic endpoints (plasma GL-1, GL-3, and GM3 concentrations) were assessed on Days 1-5, 8, 11, 13, and 14, at 0 hours […]; and on Day 15, at 24 hours after the Day 14 dose.

[7] = system: adult patients with Gaucher disease Type 3; assay: GD3 clinical study: Scale for Assessment and Rating of Ataxia (SARA)
Description: The degree of ataxia at baseline and throughout the study was evaluated by the Scale for Assessment and Rating of Ataxia (SARA; Schmitz-Hubsch et al. [2006]), which assesses eight distinct attributes of cerebellar ataxia on a scale of 0-40. The eight attributes are gait, stance, sitting, speech disturbance, finger chase, nose-finger test, fast alternate hand movement, and heel-shin slide. SARA ataxia scoring results for all six patients is presented in the chart below: […]

CC(C)(NC(=O)O[C@@H]1CN2CCC1CC2)c1csc(-c2ccc(F)cc2)n1 [Compound 2, (S)-quinuclidin-3-yl (2-(2-(4-fluorophenyl)thiazol-4-yl)propan-2-yl)carbamate]
abdominal pain and discomfort ([1]; 15 mg/day): consistently reduces abdominal pain and discomfort | patients with decreased severity of abdominal pain ([1]; week 26, patients with gastrointestinal pain at baseline): four out of five | patients with improved overall bodily pain scores (SF-36) ([1]; week 26): Seven of nine | patients with reduced number of days with gastrointestinal pain ([1]; week 26): five of five | patients with decreased severity of abdominal pain ([1]; week 156, patients with gastrointestinal pain at baseline): four out of four | patients with improved overall bodily pain scores (SF-36) ([1]; week 156): three of six | patients with reduced number of days with gastrointestinal pain ([1]; week 156): three of four | levels of GL-3 inclusions in the skin ([2]; 15 mg/day): consistently reduces the levels of GL-3 inclusions in the skin | patients with a 1-point reduction in skin GL-3 score ([2]; by week 156, 15 mg/day oral): five | patients with complete clearance of GL-3 inclusions ([2]; by week 156, 15 mg/day oral): two | patients with no change in skin GL-3 score ([2]; by week 156, 15 mg/day oral): one | effect of a high-fat meal on Compound 2 exposure [3]: no effect | systemic deterioration ([4]; 26 weeks, all patients): absence of systemic deterioration | changes in hemoglobin levels ([4]; 26 weeks): no clinically meaningful changes | patients with reductions in splenic volume of 10% or more ([4]; 26 weeks): Two | changes in hemoglobin levels ([4]; Week 52): no clinically meaningful changes | patients with spleen volume reductions ([4]; Week 52): two | Compound 2 in CSF, concentration 2-4 hours post dose (mean) ([5]; Day 1 (N = 6), GD3, 15 mg/day oral + imiglucerase): <LLOQ | time at which steady state concentration is reached in plasma and CSF ([5]; GD3, 15 mg/day oral + imiglucerase): ≤ 4 Week | Patient 5: lower concentrations of Compound 2 in plasma and CSF ([5]; Week 26, believed due to compliance or dosing errors): about 50% | Patient 5: concentrations of Compound 2 in plasma and CSF ([5]; Week 52, believed due to compliance or dosing errors): undetectable | crossing of the blood-brain barrier ([5]; all patients, GD3, 15 mg/day oral + imiglucerase): effectively cross the blood-brain barrier | AUC ([5]; 26-week interim, GD3, 15 mg/day oral + imiglucerase): 715 ± 225 ng·h/mL | AUC ([5]; 52-week interim, GD3, 15 mg/day oral + imiglucerase): 729 ± 205 ng·h/mL | day on which maximal sustained GM3 decreases start ([6]; all Compound 2 dose groups): 13 days | Plasma GL-3 ([6]; all Compound 2 dose groups, low baseline values relative to LLOQ): decreased with time | plasma GL-1 and GM3 levels ([6]; healthy adults, 5, 10, 20 mg once daily 14 days): decreased from baseline time- and dose-dependently | patients showing improvements in ataxia ([7]; 52 weeks, GD3, 15 mg/day oral + imiglucerase): 5 of 6 | SARA stance score, Patient 4 ([7]; Week 52 (baseline 1), knee pain and toe injury at exam): 5 | patients exhibiting an improvement in ataxia, excluding Patient 5 ([7]; Week 52, GD3, 15 mg/day oral + imiglucerase): 4 out of 5
